Measurements from ChEMBL document CHEMBL4411271, “New Generation of Selective Androgen Receptor Degraders: Our Initial Design, Synthesis, and Biological Evaluation of New Compounds with Enzalutamide-Resistant Prostate Cancer Activity” (J Med Chem, 2019).

Assays:
MR49F = assay: animal or person; type: functional; settings: Homo sapiens, po, 336 h, read-out: TGI
Description: Antitumor activity against human MR49F cells xenografted in NSG cells assessed as tumor growth inhibition at 100 mg/kg/day, po for 14 days and measured twice weekly relative to control

[1] = mouse, microsomes, 50 µM
in vitro = settings: mouse, microsomes
Description: Half life in mouse liver microsomes at 50 uM in presence of cofactors for phase 1 and 2 metabolism

Structure (SMILES) | inhibition in vivo at 100 mg/kg/day (MR49F) | also measured
C[C@](O)(Cn1ccc2c(F)cccc21)C(=O)Nc1ccc(C#N)c(Cl)c1 | 40 to 60% | –
C[C@](O)(COc1ccc(C#N)cc1)C(=O)Nc1ccc(C#N)c(C(F)(F)F)c1 [ENOBOSARM] | – | CLH [1]: 1400 µL/min/mg
C[C@](O)(CN1CCc2cc(F)ccc21)C(=O)Nc1ccc(C#N)c(Cl)c1 | – | half-life at 50 µM (in vitro): 9.16 min
C[C@](O)(Cn1ccc2cc(F)c(-c3ccccc3)cc21)C(=O)Nc1ccc(C#N)c(Cl)c1 | 40 to 60% | –
